Data from ChEMBL document CHEMBL3603819, “Targeting zoonotic viruses: Structure-based inhibition of the 3C-like protease from bat coronavirus HKU4--The likely reservoir host to the human coronavirus that causes Middle East Respiratory Syndrome (MERS)” (Bioorg Med Chem, 2015).

Test system: Tylonycteris bat coronavirus HKU4
Conditions: at 100 µM

Row | SMILES | inhibition
1 | CC(C)(C)NC(=O)C(c1cccnc1)N(C(=O)c1ccc[nH]1)c1ccc(C(C)(C)C)cc1 (centres undefined) | 16%
2 | CC(C)(C)NC(=O)C(c1cccnc1)N(C(=O)c1cccc2c1CCCC2)c1ccc(OCF)cc1 (centres undefined) | 21%
3 | CC(C)(C)NC(=O)C(c1cccnc1)N(C(=O)c1ncc[nH]1)c1ccc(C(C)(C)C)cc1 (centres undefined) | 22%
4 | CC(C)(C)NC(=O)C(c1cccnc1)N(C(=O)c1ccco1)C1CC2CCC1C2 (centres undefined) | 16%
5 | CC(C)(C)NC(=O)C(c1cccnc1)N(C(=O)c1ccco1)c1ccc(OCc2ccccc2)cc1 (centres undefined) | 14%
6 | COCCC(=O)Nc1ccc(N(Cc2ccsc2)C(=O)Cn2nnc3ccccc32)cc1 | 94%
7 | CC(C)(C)NC(=O)C(c1cccnc1)N(C(=O)c1cccc(O)c1)c1ccc(C(C)(C)C)cc1 (centres undefined) | 10%
8 | CC(C)(C)NC(=O)C(c1ccsc1)N(C(=O)Cn1nnc2ccccc21)c1ccc(NC(=O)c2cccs2)cc1 (centres undefined) | 26%
9 | CC(C)(C)NC(=O)C(c1cccnc1)N(C(=O)C1CCCO1)c1ccc(C(C)(C)C)cc1 (centres undefined) | 18%
10 | CC(C)(C)NC(=O)C(c1cccnc1)N(C(=O)c1cccnc1)c1ccc(C(C)(C)C)cc1 (centres undefined) | 13%
11 | CC(C)(C)NC(=O)C(c1ccsc1)N(C(=O)c1cccc2c1CCCC2)c1ccc(F)cc1 (centres undefined) | 17%
12 | CC(C)(C)NC(=O)C(c1cccnc1)N(C(=O)c1ccc(C(F)(F)F)nc1)c1ccc(C(C)(C)C)cc1 (centres undefined) | 15%
13 | CC(C)(C)NC(=O)C(c1cccnc1)N(C(=O)c1c[nH]c2ccccc12)C1CC1 (centres undefined) | 49%
14 | CC(C)c1ccc(N(C(=O)c2ccc(C#N)cc2)C(C(=O)NC(C)(C)C)c2cccnc2)cc1 (centres undefined) | 28%
15 | CC(=O)Nc1ccc(N(C(=O)Cn2nnc3ccccc32)C(C(=O)NC(C)(C)C)c2ccsc2)cc1 (centres undefined) | 53%
16 | Cc1nccn1CC(=O)N(c1ccc(C(C)(C)C)cc1)C(C(=O)NC(C)(C)C)c1ccsc1 (centres undefined) | 11%
17 | CC(C)(C)NC(=O)C(c1ccsc1)N(C(=O)c1n[nH]c2ccccc12)C1CC1 (centres undefined) | 21%
18 | CC(C)COC(=O)Nc1ccc(N(Cc2ccsc2)C(=O)Cn2nnc3ccccc32)cc1 | 75%
19 | CC(C)(C)NC(=O)C(c1cccnc1)N(C(=O)c1n[nH]c2ccccc12)c1ccc(F)cc1 (centres undefined) | 14%
20 | CC(C)(C)NC(=O)C(c1ccsc1)N(C(=O)Cn1cnc2ccccc21)c1ccc(N)cc1 (centres undefined) | 18%
21 | CC(C)(C)NC(=O)C(c1cccnc1)N(C(=O)c1ccco1)c1ccc(-c2ccccc2)cc1 (centres undefined) | 22%
22 | CC(C)C(=O)Nc1ccc(N(Cc2ccsc2)C(=O)Cn2ccnn2)cc1 | 63%
23 | CC(C)(C)NC(=O)C(c1cccnc1)N(C(=O)c1ccccc1O)c1ccc(C(C)(C)C)cc1 (centres undefined) | 11%

Row | SMILES | inhibition
24 | CC(C)(C)NC(=O)C(c1cncnc1)N(C(=O)c1c[nH]cn1)c1ccc(C(C)(C)C)cc1 (centres undefined) | 84%
25 | O=C(Cn1nnc2ccccc21)N(Cc1ccsc1)c1ccc(-c2ccccc2)cc1 | 21%
26 | O=C(Nc1ccc(N(Cc2ccsc2)C(=O)Cn2nnc3ccccc32)cc1)C1CCCCC1 | 88%
27 | COc1ccccc1C(=O)N(c1ccc(C(C)(C)C)cc1)C(C(=O)NC(C)(C)C)c1cccnc1 (centres undefined) | 17%
28 | CC(C)(C)NC(=O)C(c1cccnc1)N(C(=O)c1cnccn1)c1ccc(C(C)(C)C)cc1 (centres undefined) | 41%
29 | CC(C)(C)NC(=O)C(c1ccsc1)N(C(=O)Cn1nnc2ccccc21)c1ccc(NC(=O)c2ccno2)cc1 (centres undefined) | 76%
30 | CC(C)(C)NC(=O)C(c1cccnc1)N(C(=O)CO)c1ccc(C(C)(C)C)cc1 (centres undefined) | 29%
31 | CC(C)Oc1ccc(N(C(=O)c2ccco2)C(C(=O)NC(C)(C)C)c2cccnc2)cc1 (centres undefined) | 13%
32 | CCC(=O)Nc1ccc(N(C(=O)Cn2ccnc2C)C(C(=O)NC(C)(C)C)c2ccsc2)cc1 (centres undefined) | 19%
33 | CC(C)(C)NC(=O)C(c1cncnc1)N(C(=O)c1ccco1)c1ccc(C(C)(C)C)cc1 (centres undefined) | 16%
34 | CC(C)(C)NC(=O)C(c1ccsc1)N(C(=O)c1cccc2c1CCCC2)c1ccc(C(C)(C)C)cc1 (centres undefined) | 14%
35 | Cc1noc(C)c1-c1ccc(N(C(=O)c2ccco2)C(C(=O)NC(C)(C)C)c2cccnc2)cc1 (centres undefined) | 28%
36 | CC(C)(C)NC(=O)C(c1cccnc1)N(C(=O)c1ccc(C#N)cc1)c1ccc(F)cc1 (centres undefined) | 53%
37 | CC(C)(C)NC(=O)C(c1cccnc1)N(C(=O)c1ccco1)c1ccc(NS(C)(=O)=O)cc1 (centres undefined) | 12%
38 | CC(C)(C)NC(=O)C(c1ccsc1)N(C(=O)Cn1cnc2ccccc21)c1ccc(C(C)(C)C)cc1 (centres undefined) | 15%
39 | O=C(Cn1nnc2ccccc21)N(Cc1ccsc1)c1ccc(-c2cccnc2)cc1 | 90%
40 | CC(C)(C)NC(=O)C(c1cccnc1)N(C(=O)c1n[nH]c2ccccc12)c1ccc(C(C)(C)C)cc1 (centres undefined) | 23%
41 | Cc1nc2ccccc2n1CC(=O)N(c1ccc(N)cc1)C(C(=O)NC(C)(C)C)c1ccsc1 (centres undefined) | 14%
42 | CC(C)(C)NC(=O)C(c1cccnc1)N(C(=O)c1ccncc1)c1ccc(C(C)(C)C)cc1 (centres undefined) | 13%
43 | CC(C)(C)NC(=O)C(c1cccnc1)N(C(=O)Cc1cccnc1)c1ccc(OCF)cc1 (centres undefined) | 18%
44 | CC(C)(C)NC(=O)C(c1ccsc1)N(C(=O)Cc1c[nH]c2ccccc12)c1ccc(OCF)cc1 (centres undefined) | 25%
45 | CC(C)(C)NC(=O)C(c1ccsc1)N(C(=O)Cc1c[nH]c2ccccc12)c1ccc(F)cc1 (centres undefined) | 22%
46 | CC(C)c1ccc(N(C(=O)c2ccc(C(F)(F)F)nc2)C(C(=O)NC(C)(C)C)c2ccsc2)cc1 (centres undefined) | 15%

Row | SMILES | inhibition
47 | CC(C)(C)NC(=O)C(c1ccsc1)N(C(=O)Cn1nnc2ccccc21)c1ccc(NC(=O)C2CC2)cc1 (centres undefined) | 85%
48 | CC(C)(C)NC(=O)C(c1cccnc1)N(C(=O)c1cccc2c1CCCC2)C1CC1 (centres undefined) | 18%
49 | CC(C)(C)NC(=O)C(c1cccnc1)N(C(=O)c1ccco1)c1ccc(NS(=O)(=O)c2ccccc2)cc1 (centres undefined) | 16%
50 | CC(C)(C)NC(=O)C(c1cccnc1)N(C(=O)c1cc[nH]n1)c1ccc(C(C)(C)C)cc1 (stereo in doubt; 53B) | 28%
51 | CC(C)(C)NC(=O)C(c1ccsc1)N(C(=O)Cc1cccnc1)c1ccc(F)cc1 (centres undefined) | 24%
52 | CNc1ccc(N(Cc2ccsc2)C(=O)Cn2nnc3ccccc32)cc1 | 91%
53 | CC(C)(C)NC(=O)C(c1ccsc1)N(C(=O)c1n[nH]c2ccccc12)c1ccc(F)cc1 (centres undefined) | 11%
54 | CC(=O)Nc1ccc(N(C(=O)Cn2cc([Si](C)(C)C)nn2)C(C(=O)NC(C)(C)C)c2ccsc2)cc1 (centres undefined) | 20%
55 | CC(C)(C)NC(=O)C(c1ccsc1)N(C(=O)Cn1nnc2ccccc21)c1ccc(NC(=O)C(C)(C)C)cc1 (centres undefined) | 18%
56 | CC(=O)Nc1ccc(N(C(=O)Cn2ccnn2)C(C(=O)NC(C)(C)C)c2ccsc2)cc1 (centres undefined) | 27%
57 | CC(C)(C)NC(=O)C(c1ccsc1)N(C(=O)Cn1nnc2ccccc21)c1ccc(NS(C)(=O)=O)cc1 (centres undefined) | 27%
58 | CC(C)(C)NC(=O)C(c1cccnc1)N(C(=O)c1ccc(C(F)(F)F)cn1)c1ccc(F)cc1 (centres undefined) | 29%
59 | CC(C)c1ccc(N(C(=O)c2ccco2)C(C(=O)NC(C)(C)C)c2ccsc2)cc1 (centres undefined) | 18%
60 | CC(C)c1ccc(N(C(=O)Cc2c[nH]c3ccccc23)C(C(=O)NC(C)(C)C)c2ccsc2)cc1 (centres undefined) | 25%
61 | CC(C)(C)NC(=O)C(c1cccnc1)N(C(=O)c1ccco1)c1ccc(Cc2ccccc2)cc1 (centres undefined) | 8%
62 | CC(C)(C)NC(=O)C(c1cccnc1)N(C(=O)c1ccco1)c1ccc(-c2ccc(C#N)cc2)cc1 (centres undefined) | 14%
63 | CC(C)(C)NC(=O)C(c1ccsc1)N(C(=O)c1ccc(C#N)cc1)c1ccc(C(C)(C)C)cc1 (centres undefined) | 18%
64 | CC(C)(C)NC(=O)C(c1ccsc1)N(C(=O)Cc1cccnc1)c1ccc(OCF)cc1 (centres undefined) | 29%
65 | CC(C)(C)NC(=O)C(c1cccnc1)N(C(=O)Cc1c[nH]c2ccccc12)c1ccc(C(C)(C)C)cc1 (centres undefined) | 79%
66 | CC(C)(C)NC(=O)C(c1cccnc1)N(C(=O)Cc1ccco1)C1CC1 (centres undefined) | 43%
67 | CC(C)(C)NC(=O)C(c1cccnc1)N(C(=O)c1ccco1)c1ccc(-c2ccc(F)c(F)c2)cc1 (centres undefined) | 12%
68 | CC(C)c1ccc(N(C(=O)Cc2cccc3ccccc23)C(C(=O)NC(C)(C)C)c2ccsc2)cc1 (centres undefined) | 13%
69 | CC(C)(C)NC(=O)C(c1cccnc1)N(C(=O)CC(F)(F)F)c1ccc(C(C)(C)C)cc1 (centres undefined) | 13%

Row | SMILES | inhibition
70 | CC(C)(C)NC(=O)C(c1ccsc1)N(C(=O)Cc1c[nH]c2ccccc12)C1CC1 (centres undefined) | 17%
71 | CC(C)(C)NC(=O)C(c1ccsc1)N(C(=O)Cc1cccc2ccccc12)c1ccc(C(C)(C)C)cc1 (centres undefined) | 15%
72 | CC(C)(C)NC(=O)C(c1cccnc1)N(C(=O)c1ccc(C#N)cc1)c1ccc(C(C)(C)C)cc1 (centres undefined) | 11%
73 | O=C(NCc1ccccc1)C(c1cccc(F)c1)N(C(=O)Cn1nnc2ccccc21)C12CC3CC(CC(C3)C1)C2 (centres undefined) | 16%
74 | CC(C)(C)NC(=O)C(c1cccnc1)N(C(=O)c1cccc2c1CCCC2)c1ccc(F)cc1 (centres undefined) | 22%
75 | CC(C)(C)NC(=O)C(c1cccnc1)N(C(=O)c1ccco1)c1ccc(-c2cccn2C(=O)OC(C)(C)C)cc1 (centres undefined) | 17%
76 | CC(C)(C)NC(=O)C(c1cccnc1)N(C(=O)c1ccco1)c1ccc(-c2cncnc2)cc1 (centres undefined) | 14%
77 | CC(C)(C)NC(=O)C(c1ccsc1)N(C(=O)c1ccc(C#N)cc1)C1CC1 (centres undefined) | 20%
78 | CC(C)(C)NC(=O)C(c1ccsc1)N(C(=O)c1cccc2c1CCCC2)C1CC1 (centres undefined) | 14%
79 | CC(C)(C)NC(=O)C(c1cccnc1)N(C(=O)Cc1cccnc1)C1CC1 (centres undefined) | 48%
80 | CC(C)(C)NC(=O)C(c1ccsc1)N(C(=O)Cc1cccnc1)C1CC1 (centres undefined) | 16%
81 | CCC(C)c1ccc(N(C(=O)c2ccco2)[C@H](C(=O)NC(C)(C)C)c2cccnc2)cc1 (some centres undefined) | 39%
82 | CC(C)(C)NC(=O)C(c1ccsc1)N(C(=O)c1ccc(C(F)(F)F)cn1)c1ccc(F)cc1 (centres undefined) | 19%
83 | CC(C)(C)NC(=O)C(c1ccsc1)N(C(=O)c1ccc(C(F)(F)F)cn1)c1ccc(OCF)cc1 (centres undefined) | 18%
84 | CC(C)(C)NC(=O)C(c1ccsc1)N(C(=O)c1ccc(C#N)cc1)c1ccc(F)cc1 (centres undefined) | 13%
85 | CC(C)(C)c1ccc(N(Cc2cccnc2)C(=O)c2ccoc2)cc1 | 24%
86 | O=C(Cn1nnc2ccccc21)N(Cc1ccsc1)c1ccc(-c2ccncc2)cc1 | 98%
87 | CC(C)(C)NC(=O)C(c1cccnc1)N(C(=O)c1ccsc1)c1ccc(C(C)(C)C)cc1 (centres undefined) | 16%
88 | CC(C)(C)NC(=O)C(c1cccnc1)N(C(=O)c1ccc(C#N)cc1)c1ccc(OCF)cc1 (centres undefined) | 15%
89 | CC(C)C(=O)Nc1ccc(N(C(=O)Cn2cnc3ccccc32)C(C(=O)NC(C)(C)C)c2ccsc2)cc1 (centres undefined) | 56%
